The source of these data is publication PMC5063830, “Design and synthesis of chalcone derivatives as potential non-purine xanthine oxidase inhibitors” (SpringerPlus, 2016).

In one series the target is xanthine oxidase (Bos taurus, UniProt P80457). As to the kind of experiment: Assessment of xanthine oxidase inhibitory activity (spectrophotometric, 290 nm). It is filed as biochemical. Particulars: for IC50: 150 μM xanthine, 70 mM phosphate buffer pH 7.5, 25 °C, mean of four determinations, read-out: XO inhibitory activity IC50. As for the experimental part:
The assay mixture consisting of 50 μL of test solution, 35 μL of 70 mM phosphate buffer (pH 7.5), and 30 μL of enzyme solution (0.01 units/mL in 70 mM phosphate buffer, pH 7.5) was prepared immediately before use. […] The reaction was stopped by adding 25 μL of HCl 1 N, and the absorbance at 290 nm was measured with a Shimadzu UV-1800. […] XO inhibitory activity was expressed as the percentage inhibition of XO in the above assay system, calculated as (1 − B/A) × 100, where A and B are the activities of the enzyme without and with the test material. IC50 values were calculated from the mean values of data from four determinations.

Molecules are shown by their SMILES.

xanthine oxidase, sequence (P80457 2-1332 limits assumed): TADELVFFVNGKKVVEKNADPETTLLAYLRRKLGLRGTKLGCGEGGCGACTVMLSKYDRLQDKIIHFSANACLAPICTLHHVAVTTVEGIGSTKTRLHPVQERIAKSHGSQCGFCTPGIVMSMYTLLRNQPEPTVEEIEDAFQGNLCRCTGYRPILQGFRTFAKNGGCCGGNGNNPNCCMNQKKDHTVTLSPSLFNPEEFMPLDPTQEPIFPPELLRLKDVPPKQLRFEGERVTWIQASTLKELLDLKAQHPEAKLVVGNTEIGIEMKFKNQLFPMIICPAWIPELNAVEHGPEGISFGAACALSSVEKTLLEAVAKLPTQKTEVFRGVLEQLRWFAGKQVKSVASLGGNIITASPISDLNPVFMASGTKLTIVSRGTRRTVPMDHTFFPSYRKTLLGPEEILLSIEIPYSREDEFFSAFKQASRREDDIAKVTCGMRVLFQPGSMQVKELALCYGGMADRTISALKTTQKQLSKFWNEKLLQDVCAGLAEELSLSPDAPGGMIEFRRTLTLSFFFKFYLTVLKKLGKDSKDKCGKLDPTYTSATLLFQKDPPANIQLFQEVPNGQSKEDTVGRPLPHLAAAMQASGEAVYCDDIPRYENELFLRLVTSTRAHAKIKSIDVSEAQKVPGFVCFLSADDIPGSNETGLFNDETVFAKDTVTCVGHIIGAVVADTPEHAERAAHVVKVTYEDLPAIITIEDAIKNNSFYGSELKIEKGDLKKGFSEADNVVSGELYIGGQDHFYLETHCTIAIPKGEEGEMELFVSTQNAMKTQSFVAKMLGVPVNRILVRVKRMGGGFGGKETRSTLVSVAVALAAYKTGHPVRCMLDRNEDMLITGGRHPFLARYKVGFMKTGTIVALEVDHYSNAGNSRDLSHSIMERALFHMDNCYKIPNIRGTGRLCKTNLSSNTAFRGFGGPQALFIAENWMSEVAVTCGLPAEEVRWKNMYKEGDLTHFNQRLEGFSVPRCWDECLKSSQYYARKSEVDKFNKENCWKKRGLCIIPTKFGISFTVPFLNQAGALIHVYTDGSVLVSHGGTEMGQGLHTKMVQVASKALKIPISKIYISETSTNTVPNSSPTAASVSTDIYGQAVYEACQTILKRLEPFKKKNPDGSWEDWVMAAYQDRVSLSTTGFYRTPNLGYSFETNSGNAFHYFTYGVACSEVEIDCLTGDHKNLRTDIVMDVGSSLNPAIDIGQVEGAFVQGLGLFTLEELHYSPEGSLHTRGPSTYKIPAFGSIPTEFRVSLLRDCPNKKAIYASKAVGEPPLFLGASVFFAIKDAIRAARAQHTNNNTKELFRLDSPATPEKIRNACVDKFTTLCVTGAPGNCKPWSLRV

For `COc1ccc(/C=C/C(=O)c2ccc(O)cc2O)cc1OC` [Compound 9, 2ʹ,4ʹ-dihydroxy-3,4-dimethoxychalcone], at xanthine oxidase, the IC50 was over 100 µM.

Regarding `O=C(/C=C/c1ccccc1)c1ccccc1` [Compound 18, chalcone], at xanthine oxidase, the “XO inhibitory activity (in words)” value was “not displayed xanthine oxidase inhibitory activity” and the IC50 was over 100 µM.

Turning to `O=C(/C=C/c1ccc(O)c(O)c1)c1ccc(O)cc1O` [Compound 5, 3,4,2ʹ,4ʹ-tetrahydroxychalcone], the IC50 at xanthine oxidase was 4.3 µM.

For the compound `COc1ccc(C(=O)/C=C/c2ccc(OC)c(OC)c2)c(O)c1` [Compound 16, 2ʹ-hydroxy-3,4,4ʹ-trimethoxychalcone], the IC50 on xanthine oxidase is over 100 µM.

Turning to `O=C(/C=C/c1ccc(O)cc1O)c1ccc(O)cc1O` [Compound 6, 2,4,2′,4′-tetrahydroxychalcone], the IC50 at xanthine oxidase turned out to be 16.3 µM.

In the case of `COc1ccc(C(=O)/C=C/c2ccc(O)c(O)c2)c(OC)c1` [Compound 11, 3,4-dihydroxy-2ʹ,4ʹ-dimethoxychalcone], the IC50 on xanthine oxidase came to 2.5 µM.

For `COc1ccc(C(=O)/C=C/c2ccc(O)c(O)c2)c(O)c1` [Compound 10, 3,4,2ʹ-trihydroxy-4ʹ-methoxychalcone], the IC50 on xanthine oxidase is 19.2 µM.

As for `COc1ccc(/C=C/C(=O)c2ccc(O)cc2O)c(O)c1` [Compound 12, 2,2ʹ,4ʹ-trihydroxy-4-methoxychalcone], on xanthine oxidase, the IC50 was found to be 21.8 µM.

For `COc1ccc(C(=O)/C=C/c2ccc(O)c(O)c2)c(O)c1C(=O)/C=C/c1ccc(O)c(O)c1` [Compound 13, 3ʹ-caffeoyl-3,4,2ʹ-trihydroxy-4ʹ-methoxychalcone], the melting point fell in the range of 200 to 201 °C. Besides, at xanthine oxidase, the “XO inhibitory activity (in words)” value is on record as “most potent active” and the IC50 worked out at 2.4 µM.

With `COc1ccc(/C=C/C(=O)c2ccccc2)cc1OC` [Compound 15, 3,4-dimethoxychalcone], the IC50 on xanthine oxidase is over 100 µM.

In the case of `O=C(/C=C/c1ccc(O)c(O)c1)c1ccccc1` [Compound 3, 3,4-dihydroxychalcone], the 50% inhibitory concentration (IC50) at xanthine oxidase came out at 40.9 µM.

In the case of `CC(=O)Oc1ccc(C(=O)/C=C/c2ccc(OC(C)=O)c(OC(C)=O)c2)c(O)c1` [Compound 17, 3,4,4ʹ-triacetoxy-2ʹ-hydroxychalcone], the melting point is 110 to 111 °C. Also, the IC50 at xanthine oxidase is over 100 µM.

Consider `COc1ccc(/C=C/C(=O)c2ccccc2)cc1O` [Compound 14, 3-hydroxy-4-methoxychalcone], for which, at xanthine oxidase, the IC50 is over 100 µM.

As for `COc1ccc(/C=C/C(=O)c2ccc(O)cc2O)cc1O` [Compound 8, 3,2ʹ,4ʹ-trihydroxy-4-methoxychalcone], on xanthine oxidase, the IC50 came to 36.7 µM.

Consider `O=C(/C=C/c1ccccc1)c1ccc(O)cc1O` [Compound 4, 2′,4′-dihydroxychalcone], for which, on xanthine oxidase, the “XO inhibitory activity (in words)” value is reported as “do not show activity” and the IC50 is over 100 µM.

Broadly, the IC50 is the concentration needed to halve the response being measured. What is called melting point is the temperature, or range, at which the solid turns liquid.
